Measured values as given in BindingDB's records for doi:10.1021/acs.jnatprod.4c00082 (Johannes Gutenberg-University, 2024).
pIC50: −log10 of the molar value.

Target: T1, Signal transducer and activator of transcription 6 (Homo sapiens, UniProt P42226)
T1 sequence (P42226 whole entry): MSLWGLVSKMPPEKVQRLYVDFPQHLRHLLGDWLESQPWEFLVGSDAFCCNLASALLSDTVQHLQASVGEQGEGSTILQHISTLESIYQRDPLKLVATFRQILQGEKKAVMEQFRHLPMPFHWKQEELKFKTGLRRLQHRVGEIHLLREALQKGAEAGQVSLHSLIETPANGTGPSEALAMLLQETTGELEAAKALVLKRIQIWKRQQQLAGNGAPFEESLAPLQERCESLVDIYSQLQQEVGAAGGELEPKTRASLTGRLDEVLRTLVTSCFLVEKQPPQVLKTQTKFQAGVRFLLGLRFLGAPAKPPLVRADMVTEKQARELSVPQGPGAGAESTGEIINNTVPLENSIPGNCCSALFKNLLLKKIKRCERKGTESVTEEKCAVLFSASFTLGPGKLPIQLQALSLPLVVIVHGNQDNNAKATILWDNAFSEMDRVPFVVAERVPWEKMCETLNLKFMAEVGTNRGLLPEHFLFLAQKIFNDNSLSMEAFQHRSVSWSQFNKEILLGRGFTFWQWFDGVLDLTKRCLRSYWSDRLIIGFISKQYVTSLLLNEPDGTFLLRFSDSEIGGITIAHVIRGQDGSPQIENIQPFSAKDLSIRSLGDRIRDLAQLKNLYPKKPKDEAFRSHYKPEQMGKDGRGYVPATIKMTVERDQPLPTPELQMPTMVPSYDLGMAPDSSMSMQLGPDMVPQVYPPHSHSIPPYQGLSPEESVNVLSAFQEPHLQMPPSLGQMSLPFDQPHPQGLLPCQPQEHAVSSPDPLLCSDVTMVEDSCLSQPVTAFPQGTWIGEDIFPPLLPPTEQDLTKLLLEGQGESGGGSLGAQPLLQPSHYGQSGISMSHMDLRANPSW
Experiment: Inhibition of IL-4 induced STAT6 signaling in human HepG2 cells harboring pRL-EF1alpha, pGL3-TK-7xN4 and TOPO-Stat6 plasmid assessed as luciferase activity incubated for 24 hrs

pIC50 | Structure (SMILES)
7.30 | C/C1=C\C[C@H](O)[C@H](C)[C@@H](C)OC(=O)Cc2c(Cl)c(O)cc(O)c2C1=O
6.70 | C/C1=C\C[C@H](O)[C@H](C)[C@H](C)OC(=O)Cc2c(Cl)c(O)cc(O)c2C1=O
6.00 | C/C1=C\C[C@@H](O)[C@H](C)[C@H](C)OC(=O)Cc2c(Cl)c(O)cc(O)c2C1=O
7.14 | C/C1=C/C[C@@H](O)[C@H](C)[C@@H](C)OC(=O)Cc2c(Cl)c(O)cc(O)c2C1=O
7.19 | C/C1=C/C[C@H](O)[C@H](C)[C@@H](C)OC(=O)Cc2c(Cl)c(O)cc(O)c2C1=O
